Data on 22 compounds can be found in patent US8853424B2 (Japan Science and Technology Agency, priority 2008, dated 2014).

Where two headings read alike, the source gives them in different places.

One test deals with transglutaminase (TGase). Put plainly: Measurement of TG (TGase inhibitory activity, monodansyl cadaverine / N,N-dimethylcasein fluorescence, FDSS 3000). Type of test: biochemical. In outline: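 Compound (1 μL of 10 mM stock) added to 0.1 mL reaction: 100 mM HEPES-NaOH pH 7.5, 1 mM CaCl2, 20 μM monodansyl cadaverine, 0.05 mg/mL N,N-dimethylcasein, 5 μg/mL TGase. Rate of fluorescence change at 340 nm measured; DMSO control set to 100; TG50 is the concentration halving activity.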

Test [1] has as its system Truncated N-terminal huntington 150 Q-EGFP-Neuron 2a cells. Nature of the test: Measurement of x-Fold (polyglutamine aggregation inhibitory activity). Type of test: cell-based. The protocol:
In the present invention, the polyglutamine aggregation inhibitory activity (x-Fold) can be measured, for example, by the method described in the Example.
The number of the aggregated cells, and the total number of cells were counted by Array Scan V T1 (manufactured by Cellomics, Pittuburg, USA), and the ratio of the aggregated cells to the total number of cells was determined (x-Fold). […]

For test [2], the system named is SOC (store operated calcium channel). Put plainly: Measurement of SOC IC50 (thapsigargin store depletion, calcium re-addition, CHO cells). Type of test: cell-based. As to conditions: read-out: SOC IC50. As for the experimental part:
The SOC (store operated calcium channel)-suppressive action can be measured by the method described in the Example and using, for example, FDSS 3000.
CHO cell culture medium was replaced with a BSS solution which is an extracellular fluidfree of calcium, the compound of the present invention was added 1 min later, and 1 μM thapsigargin was allowed to act thereon 2 min later to deplete intracellular calcium store. […]

Setting [3] is: TGase activity with compound (10 mM, 1 μL in 0.1 ml enzyme reaction solution), DMSO control taken as 100.
Where [4] appears, read: TGase inhibitory activity value, Table 1.
[5] abbreviates: polyglutamine aggregation inhibitory activity, Table 1.
Setting [6] is: ratio of aggregated cells to total number of cells, compound 20 μM, 20 hr, almost 1 without compound, smaller = stronger inhibition.
[7] abbreviates: Cricetulus griseus, CHO, CHO cells, 1 μM thapsigargin, 2 mM calcium chloride.
Setting [8] is: Cricetulus griseus, CHO, Table 1.
Setting [9] is: CHO cells, 1 μM thapsigargin, 2 mM calcium chloride.

By IC50 is commonly meant the point on the concentration scale where inhibition reaches its midpoint. As to `N=C(N)NCCCC(N)C(=O)OB(c1ccccc1)c1ccccc1` (stereo not drawn) [Example 122, diphenyl(argininate-O,N)borane], the “TGase activity remaining (% of DMSO control = 100)” value in the test on transglutaminase (TGase) (setting [3]) and in the test with transglutaminase (TGase) (setting [4]) was 93 in each case. Also, the x-Fold in test [1] (setting [5]) and in test [1] (setting [6]) was 0.98 in each case. Besides, the 50% inhibitory concentration (IC50) in test [2] (setting [7]) and in test [2] (setting [8]) was 7 µM in each case.

For the compound `OB(c1ccccc1)c1ccc(COCc2ccc(B(O)c3ccccc3)cc2)cc1` [Example 137, bis((4,4′-phenylhydroxyboryl)benzyl)ether], the “TGase activity remaining (% of DMSO control = 100)” value with transglutaminase (TGase) (setting [3]) came to 14. The x-Fold in test [1] (setting [6]) turned out to be 0.99. Also, the half-maximal inhibitory concentration (IC50) in test [2] (setting [9]) was determined as 0.3 µM.

For `OB(c1ccccc1)c1cccc(B(O)c2ccccc2)c1` [Example 147, 1,3-bis(phenylhydroxyboryl)benzene], in the test with transglutaminase (TGase) (setting [3]), the “TGase activity remaining (% of DMSO control = 100)” value is on record as 101. Besides, the x-Fold in test [1] (setting [6]) is reported as 0.87. Also, the 50% inhibitory concentration (IC50) in test [2] (setting [9]) amounted to 20 µM.

Regarding `NC(=O)CC(N)C(=O)OB(c1ccc(COCc2ccc(B(OC(=O)C(N)CC(N)=O)c3ccc(C(F)(F)F)cc3)cc2)cc1)c1ccc(C(F)(F)F)cc1` (stereo not drawn) [Example 185, bis(4,4′-(p-trifluoromethylphenyl-asparagineboryl)benzyl)ether], the “TGase activity remaining (% of DMSO control = 100)” value in the test with transglutaminase (TGase) (setting [3]) is given as 130. Also, the x-Fold in test [1] (setting [6]) is listed as 0.94. The concentration for half-maximal inhibition (IC50) in test [2] (setting [9]) is more than 20 µM.

On to `CCCCNCCOB(c1ccc(C)c(Cl)c1)c1ccc(C)c(Cl)c1` [Example 210, di(3-chloro-4-methylphenyl)butylaminoethyl borinate], for which the “TGase activity remaining (% of DMSO control = 100)” value with transglutaminase (TGase) (setting [3]) and with transglutaminase (TGase) (setting [4]) was 27 each time. Besides, the x-Fold in test [1] (setting [5]) and in test [1] (setting [6]) was 0.98 throughout. The IC50 in test [2] (setting [7]) and in test [2] (setting [8]) was 2 µM in each case.

For `Cc1ccc(B(OCCNCc2ccccc2)c2ccc(C)c(Cl)c2)cc1Cl` [Example 211, di(3-chloro-4-methylphenyl)benzylaminoethyl borinate], the “TGase activity remaining (% of DMSO control = 100)” value with transglutaminase (TGase) (setting [3]) and in the test with transglutaminase (TGase) (setting [4]) was 86 in each case. In addition, the x-Fold in test [1] (setting [5]) and in test [1] (setting [6]) was 0.99 each time. Further, the IC50 in test [2] (setting [7]) and in test [2] (setting [8]) was 1 µM in each case.

On to `Cc1ccc(B(OCC(N)c2ccccc2)c2ccc(C)c(Cl)c2)cc1Cl` (stereo not drawn) [Example 214], for which the “TGase activity remaining (% of DMSO control = 100)” value in the test with transglutaminase (TGase) (setting [3]) and in the test on transglutaminase (TGase) (setting [4]) was −7 each time. Also, the x-Fold in test [1] (setting [5]) and in test [1] (setting [6]) was 0.90 in each case. Further, the half-inhibitory concentration (IC50) in test [2] (setting [7]) and in test [2] (setting [8]) was 2 µM in each case.

As for `Cc1ccc(B(Oc2ccccc2N)c2ccc(C)c(Cl)c2)cc1Cl` [Example 220, di(3-chloro-4-methylphenyl) 2-aminophenylborinate], the “TGase activity remaining (% of DMSO control = 100)” value with transglutaminase (TGase) (setting [3]) and in the test with transglutaminase (TGase) (setting [4]) was 26 each time. Moreover, the x-Fold in test [1] (setting [5]) and in test [1] (setting [6]) was 0.50 throughout. Moreover, the IC50 in test [2] (setting [7]) and in test [2] (setting [8]) was 0.5 µM each time.

For `Cc1ccc(B(OC(c2ccccc2)C(N)c2ccccc2)c2ccc(C)c(Cl)c2)cc1Cl` (stereo not drawn) [Example 225], the “TGase activity remaining (% of DMSO control = 100)” value in the test with transglutaminase (TGase) (setting [3]) and in the test on transglutaminase (TGase) (setting [4]) was 109 throughout. Also, the x-Fold in test [1] (setting [5]) and in test [1] (setting [6]) was 1.03 throughout. The IC50 in test [2] (setting [7]) and in test [2] (setting [8]) was 0.5 µM in each case.

For the compound `CCC(N)COB(c1ccc(C)c(Cl)c1)c1ccc(C)c(Cl)c1` (stereo not drawn) [Example 229, di(3-chloro-4-methylphenyl) 2-aminobutylborinate], the “TGase activity remaining (% of DMSO control = 100)” value in the test on transglutaminase (TGase) (setting [3]) and in the test with transglutaminase (TGase) (setting [4]) was 40 each time. The x-Fold in test [1] (setting [5]) and in test [1] (setting [6]) was 1.09 throughout. The IC50 in test [2] (setting [7]) and in test [2] (setting [8]) was 0.5 µM in each case.

On to `NCCOB(c1ccc(Cl)c(F)c1)c1ccc(Cl)c(F)c1` [Example 234, di(4-chloro-3-fluoro-phenyl) 2-aminoethylborinate], for which the “TGase activity remaining (% of DMSO control = 100)” value in the test with transglutaminase (TGase) (setting [3]) came to 98; with transglutaminase (TGase) (TGase inhibitory activity value, Table 1, listed as 4143), 98. Besides, the x-Fold is given as 1.07 in test [1] (polyglutamine aggregation inhibitory activity, Table 1, listed as 4143) and 1.07 in test [1] (setting [6]). Besides, the IC50 in test [2] (setting [7]) and in test [2] (setting [8]) was 0.5 µM each time.

In the case of `Cc1ccc(Cl)cc1B(OCCN)c1cc(Cl)ccc1C` [Example 244, di(5-chloro-2-methylphenyl) 2-aminoethylborinate], the “TGase activity remaining (% of DMSO control = 100)” value in the test with transglutaminase (TGase) (setting [3]) is 74. Besides, the x-Fold in test [1] (setting [6]) is 0.76. In test [2] (setting [7]), the IC50 was found to be 1 µM.

In the case of `Cc1ccc(B(OCC2CCCCN2)c2ccc(C)c(Cl)c2)cc1Cl` (stereo not drawn) [Example 247, di(3-chloro-4-methylphenyl) 2-piperidinomethylborinate], in the test with transglutaminase (TGase) (setting [3]), the “TGase activity remaining (% of DMSO control = 100)” value is 99. In addition, the x-Fold in test [1] (setting [6]) came to 0.91. Also, the IC50 in test [2] (setting [7]) was found to be 0.7 µM.

As to `OB(c1ccccc1)c1ccc(B(O)c2ccccc2)cc1` [Example 252, 1,4-bis(phenylhydroxyboryl)benzene], the “TGase activity remaining (% of DMSO control = 100)” value with transglutaminase (TGase) (setting [3]) and in the test on transglutaminase (TGase) (setting [4]) was 93 in each case. The x-Fold in test [1] (setting [5]) and in test [1] (setting [6]) was 0.95 throughout. In addition, the IC50 in test [2] (setting [7]) and in test [2] (setting [8]) was 0.5 µM in each case.

In the case of `O=C1O[B-](c2ccccc2)(c2ccccc2)[NH2+]C1CO` (stereo not drawn) [Example 255, diphenyl(serinate-O,N)borane], the “TGase activity remaining (% of DMSO control = 100)” value in the test on transglutaminase (TGase) (setting [3]) and with transglutaminase (TGase) (setting [4]) was 113 throughout. The x-Fold in test [1] (setting [5]) and in test [1] (setting [6]) was 0.94 throughout. The IC50 in test [2] (setting [7]) and in test [2] (setting [8]) was 0.5 µM each time.

As to `O=C1O[B-](c2ccccc2)(c2ccccc2)[NH2+]C1Cc1ccccc1` (stereo not drawn) [Example 259, diphenyl(phenylalaninate-O,N)borane], the “TGase activity remaining (% of DMSO control = 100)” value with transglutaminase (TGase) (setting [3]) and in the test on transglutaminase (TGase) (setting [4]) was 67 each time. Further, the x-Fold in test [1] (setting [5]) and in test [1] (setting [6]) was 0.97 each time. Further, the IC50 in test [2] (setting [7]) and in test [2] (setting [8]) was 2.5 µM each time.

Turning to `NCCC(N)C(=O)OB(c1ccccc1)c1ccccc1` (stereo not drawn) [Example 263, diphenyl(2,4-diaminolactonate-O,N)borane], the “TGase activity remaining (% of DMSO control = 100)” value in the test on transglutaminase (TGase) (setting [3]) is on record as 146; in the test with transglutaminase (TGase) (TGase inhibitory activity value, Table 1, listed as 2045), 146. The x-Fold in test [1] (polyglutamine aggregation inhibitory activity, Table 1, listed as 2045) is 0.89; in test [1] (setting [6]) it was 0.89. For the same compound, the IC50 in test [2] (setting [7]) and in test [2] (setting [8]) was 3 µM in each case.

In the case of `NC(CS)C(=O)OB(c1ccccc1)c1ccccc1` (stereo not drawn) [Example 266, diphenyl(cysteinate-O,N)borane], the “TGase activity remaining (% of DMSO control = 100)” value with transglutaminase (TGase) (setting [3]) and with transglutaminase (TGase) (setting [4]) was 84 throughout. In addition, the x-Fold in test [1] (setting [5]) and in test [1] (setting [6]) was 0.87 each time. The IC50 in test [2] (setting [7]) and in test [2] (setting [8]) was 3 µM throughout.

With `O=C(OB(c1ccccc1)c1ccccc1)C1CC(O)CN1` (stereo not drawn) [Example 268, diphenyl(hydroxyprolinate-O,N)borane], the “TGase activity remaining (% of DMSO control = 100)” value in the test with transglutaminase (TGase) (setting [3]) and in the test on transglutaminase (TGase) (setting [4]) was 103 throughout. The x-Fold in test [1] (setting [5]) and in test [1] (setting [6]) was 0.96 each time. In addition, the IC50 in test [2] (setting [7]) and in test [2] (setting [8]) was 5 µM each time.

In the case of `NC(=O)CCC(N)C(=O)OB(c1ccccc1)c1ccccc1` (stereo not drawn) [Example 269, diphenyl(glutaminate-O,N)borane], the “TGase activity remaining (% of DMSO control = 100)” value is 95 with transglutaminase (TGase) (setting [3]) and 95 in the test on transglutaminase (TGase) (TGase inhibitory activity value, Table 1, listed as 879). For the same compound, the x-Fold in test [1] (polyglutamine aggregation inhibitory activity, Table 1, listed as 879) is 1.01; in test [1] (setting [6]), 1.01. Further, the IC50 in test [2] (setting [7]) and in test [2] (setting [8]) was 3 µM in each case.

In the case of `NC(=O)CC(N)C(=O)OB(c1ccccc1)c1ccccc1` (stereo not drawn) [Example 270, diphenyl(asparaginate-O,N)borane], the “TGase activity remaining (% of DMSO control = 100)” value was found to be 111 in the test with transglutaminase (TGase) (setting [3]) and 111 with transglutaminase (TGase) (TGase inhibitory activity value, Table 1, listed as 855). The x-Fold is listed as 0.54 in test [1] (polyglutamine aggregation inhibitory activity, Table 1, listed as 855) and 0.54 in test [1] (setting [6]). For the same compound, the IC50 in test [2] (setting [7]) and in test [2] (setting [8]) was 0.7 µM each time.

Turning to `NCCCCC(N)C(=O)OB(c1ccccc1)c1ccccc1` (stereo not drawn) [Example 271, diphenyl(lysinate-O,N)borane], the “TGase activity remaining (% of DMSO control = 100)” value in the test with transglutaminase (TGase) (setting [3]) and in the test on transglutaminase (TGase) (setting [4]) was 109 throughout. Also, the x-Fold in test [1] (setting [5]) and in test [1] (setting [6]) was 1.07 each time. Moreover, the IC50 in test [2] (setting [7]) and in test [2] (setting [8]) was 0.5 µM in each case.
